Experiments:
[1] = test system: RT4; experiment: cells; settings: Homo sapiens, RT-4, 72 h
[2] = test system: Hec-1B cells; experiment: Endometrial carcinoma cell proliferation; settings: wild type FGFR2; 4 days
[3] = test system: SNU-16; experiment: Pro-survival signaling; settings: 200 nM, 6 hours
[4] = test system: PA-1; experiment: cells; settings: Homo sapiens, PA-1, 72 h
[5] = target: FLT1 (Homo sapiens, UniProt P17948); experiment: Z'-lyte kinase assay; assay type: biochemical
[6] = test system: G-401; experiment: cells; settings: Homo sapiens, G-401, 72 h
[7] = test system: wild-type MCF10A cells; experiment: Growth of wild-type MCF10A cells; assay type: cell-based
[8] = test system: FU97; experiment: cells; settings: Homo sapiens, Fu97, 72 h
[9] = test system: LU99A; experiment: cells; settings: Homo sapiens, LU-99A, 72 h
[10] = test system: iFGFR1-activated MCF10A cells; experiment: 3D Matrigel culture morphogenesis; assay type: cell-based; settings: 3D culture
[11] = test system: A2780; experiment: cells; settings: Homo sapiens, A2780, 72 h
[12] = test system: KATO-III; experiment: Pro-survival signaling; settings: 200 nM, 6 hours
[13] = test system: H520; experiment: cells; settings: Homo sapiens, NCI-H520, 72 h
[14] = test system: wild-type Ba/F3 cells; experiment: cells; settings: Mus musculus, BaF3, 48 h
[15] = test system: SBC-3; experiment: Survival pathways immunoblot; settings: 200 nM, 6 hours
[16] = test system: NCI-H1703; experiment: cells; settings: Homo sapiens, NCI-H1703, 72 h
[17] = test system: SNU-16; experiment: cells; settings: Homo sapiens, SNU-16, 72 h
[18] = test system: WT iFGFR1 MCF10A cells; experiment: iFGFR1-dependent MCF10A proliferation; settings: Homo sapiens, MCF-10A, 48 h
[19] = test system: JAR; experiment: cells; settings: Homo sapiens, 72 h
[20] = test system: R082-W-1; experiment: cells; settings: Homo sapiens, 72 h
[21] = test system: G-402; experiment: cells; settings: Homo sapiens, G-402, 72 h
[22] = test system: A2780; experiment: Survival pathways immunoblot; settings: 200 nM, 6 hours
[23] = test system: A2.1; experiment: cells; settings: Homo sapiens, 72 h
[24] = test system: VM-CUB1; experiment: cells; settings: Homo sapiens, VM-CUB-1, 72 h
[25] = test system: SBC-3; experiment: cells; settings: Homo sapiens, SBC-3, 72 h
[26] = test system: JHH-7; experiment: cells; settings: Homo sapiens, JHH7, 72 h
[27] = test system: RD-ES; experiment: cells; settings: Homo sapiens, 72 h
[28] = test system: TOV-112D; experiment: cells; settings: Homo sapiens, TOV112D, 72 h
[29] = target: FGFR1 (Homo sapiens, UniProt P11362); settings: ref Kammasud et al., 2007; cited from earlier work
Chain of FGFR1 (P11362 22-822): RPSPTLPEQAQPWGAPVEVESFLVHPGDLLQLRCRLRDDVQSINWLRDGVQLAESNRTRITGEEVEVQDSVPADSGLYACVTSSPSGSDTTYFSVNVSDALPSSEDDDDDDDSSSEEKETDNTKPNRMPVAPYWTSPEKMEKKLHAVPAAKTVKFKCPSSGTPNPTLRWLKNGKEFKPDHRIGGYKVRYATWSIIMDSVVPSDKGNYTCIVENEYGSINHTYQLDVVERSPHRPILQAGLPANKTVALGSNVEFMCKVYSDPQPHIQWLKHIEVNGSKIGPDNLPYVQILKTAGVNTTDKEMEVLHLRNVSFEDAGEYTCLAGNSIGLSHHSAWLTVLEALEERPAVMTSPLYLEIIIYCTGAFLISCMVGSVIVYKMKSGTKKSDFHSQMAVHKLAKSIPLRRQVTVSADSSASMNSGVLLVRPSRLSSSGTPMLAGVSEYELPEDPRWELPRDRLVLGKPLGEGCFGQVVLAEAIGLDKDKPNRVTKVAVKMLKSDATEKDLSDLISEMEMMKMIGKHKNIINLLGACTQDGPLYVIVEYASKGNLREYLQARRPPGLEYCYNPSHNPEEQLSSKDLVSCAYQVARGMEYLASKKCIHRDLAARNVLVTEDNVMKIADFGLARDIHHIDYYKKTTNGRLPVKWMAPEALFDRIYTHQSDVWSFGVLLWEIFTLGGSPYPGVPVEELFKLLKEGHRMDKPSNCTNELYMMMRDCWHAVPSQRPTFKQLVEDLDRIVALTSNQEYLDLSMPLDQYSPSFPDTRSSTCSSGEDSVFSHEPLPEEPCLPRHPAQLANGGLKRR

[30] = test system: STS-0421; experiment: cells; settings: Homo sapiens, 72 h
[31] = test system: MFE-296 cells; experiment: Endometrial carcinoma cell proliferation; settings: activating FGFR2 mutation; 4 days
[32] = target: V561M FGFR1 (Homo sapiens, UniProt P11362, V561M); settings: 10 μM, 1 hour drug treatment, HEK293
Chain of V561M FGFR1 (P11362 22-822 V561M): as the sequence (P11362 22-822) above, with V540M counted along it

[33] = test system: KATO III; experiment: cells; settings: Homo sapiens, 72 h
[34] = test system: AN3CA cells; experiment: Endometrial carcinoma cell proliferation; settings: activating FGFR2 mutation; 4 days

Chain of FLT1 (P17948 27-1338): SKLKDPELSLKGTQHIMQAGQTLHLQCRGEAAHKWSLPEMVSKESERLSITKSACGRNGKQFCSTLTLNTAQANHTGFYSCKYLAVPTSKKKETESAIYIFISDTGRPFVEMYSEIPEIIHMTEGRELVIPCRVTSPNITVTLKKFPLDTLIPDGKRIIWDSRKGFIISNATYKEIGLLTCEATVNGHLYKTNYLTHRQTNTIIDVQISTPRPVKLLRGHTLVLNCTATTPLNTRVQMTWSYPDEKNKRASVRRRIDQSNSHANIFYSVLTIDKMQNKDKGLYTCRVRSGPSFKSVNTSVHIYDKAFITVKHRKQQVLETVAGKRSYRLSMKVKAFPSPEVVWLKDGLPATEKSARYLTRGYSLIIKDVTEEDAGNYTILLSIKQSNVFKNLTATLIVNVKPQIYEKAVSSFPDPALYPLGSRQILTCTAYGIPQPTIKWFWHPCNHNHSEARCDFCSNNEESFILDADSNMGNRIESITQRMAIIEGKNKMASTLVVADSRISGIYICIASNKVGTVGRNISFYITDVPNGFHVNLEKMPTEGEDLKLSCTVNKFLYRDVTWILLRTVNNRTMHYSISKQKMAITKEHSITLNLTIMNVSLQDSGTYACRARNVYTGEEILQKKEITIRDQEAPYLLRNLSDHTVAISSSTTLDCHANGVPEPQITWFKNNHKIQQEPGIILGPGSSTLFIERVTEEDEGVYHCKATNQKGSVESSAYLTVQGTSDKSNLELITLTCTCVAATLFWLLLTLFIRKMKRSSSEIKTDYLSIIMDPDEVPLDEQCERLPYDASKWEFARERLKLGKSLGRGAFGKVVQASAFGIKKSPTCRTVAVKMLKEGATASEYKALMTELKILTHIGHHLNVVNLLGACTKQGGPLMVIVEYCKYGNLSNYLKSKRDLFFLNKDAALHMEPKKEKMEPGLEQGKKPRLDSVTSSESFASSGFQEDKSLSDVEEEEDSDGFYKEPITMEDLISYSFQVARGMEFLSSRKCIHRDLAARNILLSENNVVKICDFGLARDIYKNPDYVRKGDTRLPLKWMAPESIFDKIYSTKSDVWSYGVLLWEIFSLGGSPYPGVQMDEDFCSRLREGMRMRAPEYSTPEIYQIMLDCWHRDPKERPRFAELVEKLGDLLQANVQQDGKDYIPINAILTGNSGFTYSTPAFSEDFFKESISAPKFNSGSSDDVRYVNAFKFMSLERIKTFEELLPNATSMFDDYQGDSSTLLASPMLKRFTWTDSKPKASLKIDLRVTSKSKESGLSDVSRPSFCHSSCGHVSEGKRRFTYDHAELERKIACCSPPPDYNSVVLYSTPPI

## C=CC(=O)Nc1cccc(CN2C(=O)N(c3c(Cl)c(OC)cc(OC)c3Cl)Cc3cnc(NCCCCN(CC)CC)nc32)c1 [FIIN-1]
[1]
  EC50: 70 nM
[2]
  sensitivity in cell proliferation assay: not sensitive
[3]
  effect on pro-survival Akt and Erk1/2 pathways: potently suppressed
[4]
  EC50: 4600 nM
[5]
  IC50: 661 nM
[6]
  EC50: 140 nM
[7]
  effect on growth of wild-type MCF10A cells: neither FIIN-1 nor PD173074 affected the growth
[8]
  EC50: 650 nM
[9]
  EC50: > 5000 nM
[10]; 20 nM
  effect on abnormal morphogenesis induced by iFGFR1 activation: prevented
[11]
  EC50: 220 nM
[12]
  effect on pro-survival Akt and Erk1/2 pathways: potently suppressed
[13]
  EC50: 4500 nM
[14]
  EC50: > 10000 nM
[15]
  effect on cell survival and survival pathways: inhibited
[16]
  EC50: > 5000 nM
[17]
  EC50: 30 nM
[18]
  EC50: 2.7 nM
[19]
  EC50: > 5000 nM
[20]
  EC50: > 5000 nM
[21]
  EC50: 1650 nM
[22]
  effect on cell survival and survival pathways: inhibited
[23]
  EC50: 230 nM
[24]
  EC50: > 5000 nM
[25]
  EC50: 80 nM
[26]
  EC50: > 5000 nM
[27]
  EC50: 2300 nM
[28]
  EC50: > 5000 nM

## COc1cc(OC)cc(-c2ccc3c(c2)NC(=O)/C3=C\c2[nH]c(C)c(CCC(=O)O)c2C)c1 [NP603]
[29]
  IC50: 400 nM

## CCN(CC)CCCCNc1ncc2cc(-c3cc(OC)cc(OC)c3)c(NC(=O)NC(C)(C)C)nc2n1 [PD173074, reference compound]
[1]
  EC50: 50 nM
[2]
  sensitivity in cell proliferation assay: not sensitive
[30]
  EC50: 120 nM
[4]
  EC50: > 5000 nM
[6]
  EC50: 210 nM
[7]
  effect on growth of wild-type MCF10A cells: neither FIIN-1 nor PD173074 affected the growth
[8]
  EC50: 1160 nM
[9]
  EC50: 3000 nM
[31]
  EC50 (sensitivity in cell proliferation assay): sub-micromolar
[10]; 1 μM
  effect on abnormal morphogenesis induced by iFGFR1 activation: prevented
[11]
  EC50: 820 nM
[32]
  inhibition of autophosphorylation of FGFR1-V561M: incapable of inhibiting
[13]
  EC50: > 5000 nM
[16]
  EC50: > 5000 nM
[33]
  EC50: 22 nM
[17]
  EC50: 120 nM
[19]
  EC50: > 5000 nM
[20]
  EC50: 2500 nM
[21]
  EC50: 2480 nM
[23]
  EC50: 340 nM
[34]
  EC50 (sensitivity in cell proliferation assay): sub-micromolar
[24]
  EC50: > 5000 nM
[25]
  EC50: 320 nM
[26]
  EC50: > 5000 nM
[27]
  EC50: > 5000 nM
[28]
  EC50: > 5000 nM

From article PMC2920453 (Chemistry & biology, 2010)
